Compound | melting point
OCC(CO)C1c2ccccc2-c2ccccc21 | 101 °C
Cc1cn(-c2cc(NC(=O)c3ccc(Cl)c(C#Cc4ccc(NC5CCC5)nn4)c3)cc(C(F)(F)F)c2)cn1 | 225 to 227 °C
Cc1cc2c(s1)S(=O)(=O)N(C(C)(C)C)C2=O | 80 to 81 °C
CCCC(=CC(=O)Nc1ccccc1)OC | 104 °C
CCCCC(=O)N(Cc1ccc(OC(F)(F)F)cc1)c1cc(Cl)cc(-c2nnn[nH]2)c1 | 177 to 180 °C
O=C(O)CCCCCCc1cccc(-c2nc(=O)c3ccccc3s2)n1 | 149 to 151 °C
Cc1cc(C=NO)ccc1C(=O)NCc1ccccn1 | 160 to 161 °C
Nc1nc(-c2ccccn2)cc2ccccc12 | 152 to 153 °C
COc1ccc2c(C(=O)c3ccc(OC4CCCCC4n4ccnc4)cc3)c(-c3ccc(OCCN4CCCC4)cc3)sc2c1 (stereo not given) | 68 to 78 °C
CS(=O)(=O)Nc1ccc(CCOS(C)(=O)=O)cc1 | 134 to 136 °C
CCNC(=O)N(C)C(=O)Nc1ccccc1 | 80.5 to 81.5 °C
COc1cc2nc(Cl)n3cnnc3c2cc1OC | 269 to 271 °C
CNC(=O)Oc1ccc(CN2CCN(c3ccc(C(C)=O)cc3)CC2)cc1OC | 120 to 123 °C
CCCc1nc2c(C)cc(-c3nc4ccccc4n3C)cc2n1Cc1ccc(-c2ccccc2NC(=O)C(F)(F)F)cc1 | 115 to 120 °C
CNC(=O)C(=O)CCCCCON=Cc1ccc(-c2ccccc2)cc1 | 86 to 87 °C
N#CC(CCOc1ccccc1)(Cn1cncn1)c1ccccc1 (stereo not given) | 64 to 66 °C
CCc1ccc2oc(C(=O)Nc3ccc(-c4ccc(S(=O)(=O)NC(C(=O)OC)C(C)C)cc4)cc3)c(C)c2c1O (stereo not given) | 75 to 80 °C
Cc1cc(CNC(=O)c2nc3ccc(F)c(OCCc4ccc(C(=O)O)cc4)c3c(=O)[nH]2)ccc1F | 267 to 268 °C
Cc1c(-c2ccccc2)oc2c(COCCCl)cccc2c1=O | 102 to 103 °C
O=C1C(Cc2ccccc2)SC(=S)N1c1nccs1 (stereo not given) | 164 to 165 °C

Compound | melting point
COc1ccc2[nH]c(C(N)=O)c(OC(C)C)c2c1 | 138 to 140 °C
CC1(C)CC(=O)C2=C(C1)NC1=C(C(=O)CC(C)(C)C1)C2c1ccc2ccccc2c1 | > 300 °C
CCOC(=O)COc1c(C(=O)OC)cc(Cl)cc1[N+](=O)[O-] | 68 to 70 °C
Cc1[nH]c(=O)[nH]c1C(=O)c1ccncc1 | 295 to 296 °C
CC(C)c1ccc(C(=O)NC(C)c2sccc2Br)cc1 (stereo not given) | 133 °C
C#CCN(c1ccc(C(=O)NC(CCCCC(=O)O)C(=O)O)cc1)C1CCc2cc3nc(C)[nH]c(=O)c3cc21 (mixture of isomers) | 165 °C
Oc1ncnc2c(-c3ccc(Cc4ccccc4)cc3)cnn12 | 300 to 303 °C
CCCCOCCOc1ccc(-c2ccc3c(c2)C=C(C(=O)Nc2ccc(CSc4nncs4)cc2)CCN3CC(C)C)cc1 | 77 to 79 °C
CCOC(=O)c1c(C)nc2c(ncn2C)c1OCCC(C)C | 64 to 66 °C
CCOC(=O)/C=C(C)/C=C/C=C(\C)C1=Cc2cc(C(C)(C)C)cc(C(C)(C)C)c2OC1 | 130 to 131 °C
COc1cccc(C2c3ccccc3C(c3ccc4c(c3)OCO4)C2C(=O)O)c1 (stereo not given) | 131 to 133 °C
OC(CCc1ccccc1)(c1ccccc1)c1cncn1Cc1ccccc1 (stereo not given) | 196 to 198 °C
CS(=O)(=O)CC(=O)CCc1ccccc1 | 97.6 to 98.4 °C
CC(C)(C)c1cc(C(=O)Nc2ccccc2NC(=O)N(Cc2ccccc2)Cc2ccccc2)cc(C(C)(C)C)c1O | 187 to 189 °C
Cc1[nH]cc2c1-c1ccc(Cl)cc1C(c1ccccc1Cl)=NC2 | 219 to 222 °C
CC(C)(C)c1csc(NC(=O)c2ccn3c(=O)c(/C=C/C(=O)O)c(N4CCCC(CC(=O)NCCO)C4)nc3c2)n1 (stereo not given) | 167 to 175 °C
CCOC(=O)COc1ccc(Nc2nccc(-c3ccncc3)n2)cc1 | 109 to 111 °C
O=Cc1c(C2CC2)nc2ccccc2c1-c1ccc(F)cc1 | 152 °C
CCCCc1c(C(=O)c2ccc(OC)cc2)[nH]c2ccc([N+](=O)[O-])cc12 | 142 °C
Cc1cc(Oc2ncc(C(F)(F)F)cc2Cl)nn1C(=O)Nc1cccc(C(F)(F)F)c1 | 123 to 124 °C

Compound | melting point
CC(=NO)c1ccc(OCC(O)(Cn2cncn2)C(C)(C)C)cc1 (stereo not given) | 129 to 132 °C
CCCCn1c(CO)nc2cnc3ccccc3c21 | 146 to 149 °C
O=C(O)COc1ccc(C(=O)c2ccc([N+](=O)[O-])cc2)c(Cl)c1Cl | 172 to 175 °C
NC(=O)c1ccc(CCC[N@]2C[C@@H]2c2ccccc2)s1 | 117 to 119 °C
N#Cc1cccc(Cc2c(-c3ccc(OC(F)F)c(OC4CC4)c3)[nH]c3cn[nH]c(=O)c23)c1 | 130 to 135 °C
COC(=O)c1c(C(=O)OC)c(-c2ccc(OC)c(OC)c2)c2c(OC)c(OC)c(OC)cc2c1O | 178 to 179 °C
CCOc1nn(-c2ccc(C(F)(F)F)cn2)cc1CCCOc1cc(CCC(=O)O)n(C)n1 | 137 to 138 °C
CC(=O)OCC1OC(SCC#N)C(OC(C)=O)C(OC(C)=O)C1OC(C)=O (stereo not given) | 97 °C
Oc1cccc(C2CCCN(CCCc3ccccc3)C2)c1 (stereo not given) | 119 to 120 °C
CC(C)(C)C(=O)c1ccc(C(Br)Br)cc1 | 65 to 68 °C
Nn1c(C2CC2)n[nH]c1=O | 183 °C
FC(F)(F)c1cccc(CSc2nnc(-c3ccc4ncccc4c3)o2)c1 | 158 to 159 °C
CCOC(=O)CN1C(=O)C(=Cc2ccccc2)SC1=S | 122 to 125 °C
COc1ccc2cc(-c3cc(=O)oc4cc(O)ccc34)ccc2c1 | 223 to 225 °C
CN(C1CCN(Cc2cccs2)CC1)S(=O)(=O)c1ccc(Nc2nccc(Nc3ccc(F)cc3)n2)cc1 | 175 to 176 °C
CCC(O)(C(=O)c1ccccc1)c1ccccc1 (stereo not given) | 62 to 68 °C
Cc1ccc(C(=O)Oc2cc(O)ccn2)cc1 | 120 to 127 °C
C=CCc1c(C)nc(C)nc1NCc1ccc(-c2ccccc2-c2nnn[nH]2)cc1 | 259 to 260 °C
CCOC(=O)c1cn(C2CC2)c2c(F)c(F)c(Cl)cc2c1=O | 169 to 172 °C
COc1ccc(CNc2nc(C)nc(C)c2Cl)cc1Oc1ccc2ncc([N+](=O)[O-])n2n1 | 273 to 274 °C

Further lines, results first:

melting point | Compound
89 to 94 °C | C[C@@H]1Cc2ccsc2[C@H](C)N1CCNC(=O)c1ccccc1N (relative stereo)
208 to 210 °C | CC(=O)NC[C@H]1CN(c2ccc(N3CCC(O)(CC(N)=O)CC3)c(F)c2)C(=O)O1
154 to 156 °C | Cc1cc(Cl)cc2c1OCCCC2NS(C)(=O)=O (stereo not given)
111 to 113 °C | COc1nc2ccccc2cc1NC(=O)N1CCN(c2cccc(OC(C)C)c2)CC1
165 °C | Cc1c(CC(=O)NC2CCN(Cc3ccc(Cl)c(Cl)c3)CC2)cnn1-c1ccccc1
145 to 147 °C | COc1ccc2[nH]c(SCc3nccc(N4CCCCC4)c3Cl)nc2c1
109 to 110 °C | CSc1ccc(C(CC2CCCC2)C(=O)Nc2ccc([N+](=O)[O-])cn2)cc1C(F)(F)F (stereo not given)
162 to 164 °C | CC1=C(CC2=NCCN2C)CCc2ccccc21
188 to 190 °C | COc1nc2ccc(Cl)cc2c(-c2ccccc2Cl)c1C(=O)O
176 °C | Cc1ccc2c(C#N)cn(-c3ccc(C(C)C)cc3Br)c2n1
119 to 121 °C | COC(=O)/C(=C/c1ccc(OC)c(OC2CCCC2)c1)CC(=O)O
155 to 157 °C | CC(O)c1ccc(-c2ccc3c(c2)CC(C(=O)O)O3)cc1 (stereo not given)
110 °C | COc1ccc(S(=O)(=O)N2Cc3ccsc3C[C@@H]2C(=O)O)cc1
158 to 160 °C | CC(C)(C)C(NC(=O)c1ccc(Cl)cc1)NC(=NC#N)Nc1cccc(Cl)c1 (stereo not given)
187 to 189 °C | Cc1c(CC(=O)O)c2c(F)c(O)ccc2n1C(=O)c1ccc(Cl)cc1
201 to 202 °C | CC(Cl)(Cl)C(NC(=O)c1ccc(Cl)cc1)Nc1c(Nc2cccnc2)c(=O)c1=O (stereo not given)
46 to 47 °C | N#CC1(N)CCOCC1
140 °C | Cc1ccc(CN2CCN(C3=NC4(C=CC(=O)C=C4)C(c4ccc(O)cc4)=C3)CC2)cc1
227 to 230 °C | COc1cc2c(Nc3ccc(Cl)cc3F)ncnc2cc1OCCS(C)(=O)=O
85 to 89 °C | CC(C)OC(=O)c1cc(-n2c(=O)c(F)c(CF)n(C)c2=O)c(F)cc1Cl

melting point | Compound
108 °C | CN1C(=O)CCC2=C1CCc1cc(F)ccc12
79.8 to 80.7 °C | c1ccc(C2NCCc3sccc32)cc1 (stereo not given)
222 to 224 °C | O=C(O)c1nn(-c2ccc(Cl)cc2Cl)c(-c2ccc(Cl)cc2)c1Br
118 °C | CCOC(=O)c1cnc2c(F)c(F)ccc2c1
51 °C | COC(=O)CCOc1ccc(C#N)cc1
166 to 167 °C | O=c1ccn(-c2cccc(C(F)(F)F)c2)nc1-c1ccnn1-c1ccc(Cl)cc1
130 to 132 °C | O=C1c2ccccc2C(=O)N1n1cccc1Cl
153 to 155 °C | O=C(O)c1cc([N+](=O)[O-])ccc1Nc1ccc(CCCc2ccc(Cl)c(Cl)c2)cc1
170 °C | C/C=C/CC(=O)N[C@H]1CC[C@H](CCN2CCN(c3nccc4c3OCC4)CC2)CC1
171 to 172 °C | Cc1ccc2c(c1)C(=O)C(=O)N2CC(N)=O
96 to 98 °C | Cc1nc2ccccc2n1CCOCCCl
145 °C | CC1(C)Cc2cccc(OCCNCc3cccc(C4=C(F)CCC4)c3)c2O1
135 to 136 °C | N#CCCNC(=O)c1cccc(-c2ccc3c(c2)N(Cc2ccc(Cl)c(Cl)c2)CC3)c1
186 °C | Cc1ccc(CC2CCN(C(=O)C(=O)Nc3ccc4c(c3)CS(=O)(=O)N4)CC2)cc1
164 to 165 °C | O=S1NC(Cc2ccc3c(Cl)cccc3c2)=NO1 (stereo not given)
71 to 76 °C | O=S(=O)(NC1Cc2ccc(CCO)cc2C1)c1ccc(Cl)cc1 (stereo not given)
305 to 308 °C | N#CNc1cc(Cl)ccc1N1CCOCC1
226 to 227 °C | O=C(O)C1=C(c2ccccc2)c2cc(Cl)ccc2OC1CC(F)(F)F (stereo not given)
162 to 164 °C | Nc1nnc(SCc2ccc(Cl)cc2)s1
146 to 148 °C | C1=C(c2cccnc2)CCC(N2CCN(c3ccccn3)CC2)C1 (stereo not given)
